These results are taken from ChEMBL document CHEMBL1201862, “PubChem BioAssay data set” (2004).

As a reminder, the GI50 is the concentration at which growth is held to half of that of the control.

Several values for one entry are separate records, joined by “and”; a condition that tells them apart may be missing. Equal values may be shown once.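 Five concentrations, 48 hours, 96-well plates. GI50 marks 50% less growth.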 Activity calls are given as the source filed them. Rule as the data show it: active = GI50 up to about 1.1 µM and inactive = higher. Some results are limits rather than exact numbers.

What all share (experiment): DTP human tumour cell line panel, 48 h
Experiment [1] deals with 786-0.
Experiment [2] has as its system NCI-H460.
In experiment [3] the test system is NCI-H23.
The test system of experiment [4] is MDA-MB-435.
For experiment [5], the system named is SK-MEL-5.
For experiment [6], the system named is CCRF-CEM.
For experiment [7], the system named is OVCAR-5.
Experiment [8] has as its system HCC 2998.
Experiment [9] concerns OVCAR-8.
The test system of experiment [10] is KM12.
In experiment [11] the test system is OVCAR-4.
The subject of experiment [12] is K562.
The subject of experiment [13] is DU-145.
The test system of experiment [14] is SN12C.
Experiment [15] has as its system SF-295.
Experiment [16] concerns EKVX.
In experiment [17] the test system is HCT-15.
Experiment [18] deals with RPMI-8226.
Experiment [19] has as its system SK-MEL-2.
Experiment [20] has as its system TK-10.

For the compound `CC(C)CCNC(=O)C(CC(C)C)NC(=O)[C@H]1O[C@@H]1C(=O)O` (stereo partly drawn), the GI50 in experiment [1], in [2], in experiment [3], in experiment [4], in [5] and in experiment [6] was > 100 µM (inactive) throughout. The GI50 in experiment [7], in experiment [8], in [9], in experiment [10], in experiment [11] and in experiment [12] was > 100 µM (inactive) each time. Besides, the GI50 in experiment [13] was > 100 µM (inactive); in [14], > 100 µM (inactive); in experiment [15], > 100 µM (inactive); in experiment [16], > 100 µM (inactive); in experiment [17] it was greater than 100 µM.

Take `C1CCCN(NC2=NCCO2)CC1`: the GI50 in experiment [1], in experiment [2], in experiment [18], in experiment [3], in [4] and in [5] was > 100 µM (inactive) each time. Further, the GI50 in [19], in experiment [6], in [7], in [20], in experiment [8] and in experiment [9] was > 100 µM (inactive) each time. Besides, the GI50 in experiment [10], in experiment [11], in experiment [12], in experiment [14], in experiment [15] and in experiment [16] was > 100 µM (inactive) each time. In addition, the GI50 in experiment [17] was greater than 100 µM.

For the compound `CC(=O)OCC1OC(Sc2nc(-c3ccc(C)cc3)c(C#N)c(=O)n2C2OC(COC(C)=O)C(OC(C)=O)C(OC(C)=O)C2OC(C)=O)C(OC(C)=O)C(OC(C)=O)C1OC(C)=O` (stereo not drawn), the GI50 in experiment [1], in experiment [2], in experiment [18], in [3], in experiment [5] and in experiment [19] was > 100 µM (inactive) in each case. Moreover, the GI50 in experiment [6] is 4.83 µM (inactive) and 6.76 µM (inactive); in [7], > 100 µM (inactive); in experiment [20], > 100 µM (inactive); in experiment [9] it was > 100 µM (inactive); in experiment [13], > 100 µM (inactive); in experiment [14], > 100 µM (inactive). In addition, the GI50 in [15] was > 100 µM (inactive); in [16] it was > 100 µM (inactive); in experiment [17], greater than 100 µM.

Take `CC1(C)CC2(C)CC1CC2(O)c1ccccc1` (stereo not drawn): the GI50 in experiment [1], in experiment [2], in experiment [3], in experiment [4], in [5] and in experiment [6] was > 100 µM (inactive) throughout. Besides, the GI50 in experiment [7], in experiment [20], in [9], in [10], in [11] and in [12] was > 100 µM (inactive) each time. Also, the GI50 in experiment [13], in [14] and in [15] was > 100 µM (inactive) throughout.

`COc1cc([C@@H]2c3cc4c(cc3[C@@H](OC(=O)c3ccc(N)cc3)C3COC(=O)[C@@H]32)OCO4)cc(OC)c1O` (stereo partly drawn): the GI50 in [1] was 7.08 µM (inactive); in experiment [2], 3.73 µM (inactive); in [18], 7.8 µM (inactive); in experiment [3], 3.32 µM (inactive); in experiment [5] it was 3.59 µM (inactive); in [19] it was 6.32 µM (inactive). Further, the GI50 was 6.18 µM (inactive) in experiment [6]; 41.5 µM (inactive) in experiment [7]; 17.6 µM (inactive) in [20]; 12.2 µM (inactive) in experiment [8]; 4.49 µM (inactive) in experiment [9]; 11.9 µM (inactive) in experiment [10]. Further, the GI50 was 45.4 µM (inactive) in [11]; 5.18 µM (inactive) in [12]; 4.21 µM (inactive) in [14]; 4.25 µM (inactive) in experiment [15]; 20.2 µM (inactive) in experiment [16]; 12.8 µM in [17].

In the case of `COc1cc2ccnc(-c3n[nH]c4cc(OC)c(OC)cc34)c2cc1OC`, the GI50 in [1], in experiment [2], in [18], in [3], in experiment [5] and in [19] was > 100 µM (inactive) throughout. In addition, the GI50 in [6], in experiment [7], in experiment [20], in [8], in experiment [9] and in experiment [10] was > 100 µM (inactive) throughout. For the same compound, the GI50 in [11] is > 100 µM (inactive); in experiment [12], > 100 µM (inactive); in [14], > 100 µM (inactive); in experiment [15] it was > 100 µM (inactive); in experiment [16], > 100 µM (inactive); in experiment [17], greater than 100 µM.

Consider `O=[PH]1c2ccccc2Nc2ccccc21`, for which the GI50 was > 100 µM (inactive) in [1]; 53.5 µM (inactive) in experiment [2]; > 100 µM (inactive) in experiment [3]; > 100 µM (inactive) in experiment [4]; > 100 µM (inactive) in [5]; 49.9 µM (inactive) in [19]. For the same compound, the GI50 in experiment [6], in experiment [7], in experiment [20], in experiment [8], in experiment [9] and in experiment [10] was > 100 µM (inactive) each time. In addition, the GI50 is 64.7 µM (inactive) in [11]; 21.6 µM (inactive) in experiment [12]; 98.6 µM (inactive) in experiment [13]; > 100 µM (inactive) in [14]; > 100 µM (inactive) in experiment [15]; 22.4 µM (inactive) in experiment [16]. Moreover, growth in [17] was halved (GI50) at 37.1 µM.

In the case of `O=C(c1nc2ccccc2nc1O)C(O)c1ccco1` (stereo not drawn), the GI50 is > 100 µM (inactive) in experiment [1]; > 100 µM (inactive) in experiment [2]; > 100 µM (inactive) in [18]; > 100 µM (inactive) in experiment [3]; 64.1 µM (inactive) in experiment [5]; > 100 µM (inactive) in [19]. In addition, the GI50 in experiment [6] was > 100 µM (inactive); in [7] it was > 100 µM (inactive); in experiment [20], > 100 µM (inactive); in experiment [8] it was > 100 µM (inactive); in experiment [9], > 100 µM (inactive); in experiment [10] it was 76.4 µM (inactive). The GI50 in [11] was > 100 µM (inactive); in [12], > 100 µM (inactive); in experiment [14], > 100 µM (inactive); in [15], > 100 µM (inactive); in [16], > 100 µM (inactive); in [17], 51.8 µM.

`C=CCN1C2Cc3cc(OC)c(OC)cc3C1Cc1cc(OC)c(OC)cc12`: the GI50 is > 100 µM (inactive) in experiment [1]; > 100 µM (inactive) in experiment [2]; > 100 µM (inactive) in [18]; 78.9 µM (inactive) in experiment [3]; > 100 µM (inactive) in [5]; > 100 µM (inactive) in experiment [19]. Besides, the GI50 in experiment [6], in experiment [7], in experiment [20], in [8], in [9] and in [10] was > 100 µM (inactive) each time. The GI50 is > 100 µM (inactive) in experiment [11]; > 100 µM (inactive) in experiment [12]; > 100 µM (inactive) in experiment [14]; 53.8 µM (inactive) in experiment [15]; > 100 µM (inactive) in experiment [16]; greater than 100 µM in [17].

`COc1ccc2c3c([nH]c2c1CC=C(C)C)C(=O)C=C(C)C3=O`: the GI50 in experiment [1], in experiment [2], in experiment [18], in experiment [3], in experiment [5] and in experiment [19] was > 25 µM (inactive) in each case. The GI50 is 8.36 µM (inactive) in experiment [6]; > 25 µM (inactive) in [7]; > 25 µM (inactive) in experiment [20]; > 25 µM (inactive) in [8]; > 25 µM (inactive) in [9]; > 25 µM (inactive) in [10]. Also, the GI50 in [11] was 20.4 µM (inactive); in [12], > 25 µM (inactive); in experiment [14], > 25 µM (inactive); in [15], > 25 µM (inactive); in experiment [16], > 25 µM (inactive); in [17], greater than 25 µM.

Turning to `O=C(NO)C(=O)Nc1cc(Cl)ccc1Cl`, the GI50 in experiment [1], in experiment [2], in experiment [18], in experiment [3], in experiment [5] and in experiment [19] was > 100 µM (inactive) in each case. Besides, the GI50 in experiment [6] is 51.1 µM (inactive); in experiment [7] it was > 100 µM (inactive); in [20], > 100 µM (inactive); in [8], 78 µM (inactive); in [9], > 100 µM (inactive); in experiment [10], > 100 µM (inactive). For the same compound, the GI50 in [11] was > 100 µM (inactive); in [12] it was 63.8 µM (inactive); in [14], > 100 µM (inactive); in experiment [15] it was > 100 µM (inactive); in [16] it was > 100 µM (inactive); in experiment [17], greater than 100 µM.
